Measurements reported in publication PMC8421423, “Cellular model system to dissect the isoform-selectivity of Akt inhibitors” (Nature Communications, 2021).
“And” between values parts separate entries of the source, which are not always exact repeats. Equal values may be shown once. Read-outs that look alike come from different tables or passages of the source.

Assays:
[1] = tested on: parental Ba/F3 cells; test: CellTiter-Glo cell viability assay; type: cell-based, murine
[2] = tested on: Ba/F3^myr-Akt1 cells; test: CellTiter-Glo cell viability assay; settings: for Log ratio EC50 [Akt] / EC50 [Akt], Akt1 / Akt2: cell viability assay Ba/F3 myr-Akt cells, log units
[3] = tested on: Ba/F3^myr-Akt2 cells; test: CellTiter-Glo cell viability assay
[4] = tested on: Ba/F3^myr-Akt3 cells; test: CellTiter-Glo cell viability assay; settings: for Log ratio EC50 [Akt] / EC50 [Akt], Akt3 / Akt2: cell viability assay Ba/F3 myr-Akt cells, log units
[5] = target: Akt1 (Homo sapiens, UniProt P31749); test: STK HTRF KinEASE activity-based assay (IC50); settings: for Log ratio IC50 [Akt] / IC50 [Akt], Akt1 / Akt2: biochemical activity based assay, log units
Akt1, sequence (P31749 whole entry): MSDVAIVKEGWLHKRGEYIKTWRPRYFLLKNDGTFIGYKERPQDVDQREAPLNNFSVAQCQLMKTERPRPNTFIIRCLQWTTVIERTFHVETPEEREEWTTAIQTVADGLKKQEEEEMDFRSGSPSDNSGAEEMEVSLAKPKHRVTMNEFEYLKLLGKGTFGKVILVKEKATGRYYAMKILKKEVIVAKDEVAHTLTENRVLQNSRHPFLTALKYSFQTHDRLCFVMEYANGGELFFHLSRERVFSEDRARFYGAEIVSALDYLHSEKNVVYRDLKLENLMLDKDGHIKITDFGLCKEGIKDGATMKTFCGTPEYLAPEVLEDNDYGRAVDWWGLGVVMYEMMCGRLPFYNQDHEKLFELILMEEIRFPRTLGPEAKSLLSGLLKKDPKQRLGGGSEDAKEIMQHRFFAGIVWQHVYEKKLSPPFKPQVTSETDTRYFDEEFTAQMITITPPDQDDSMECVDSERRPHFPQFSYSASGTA
Description: (§1) The biochemical half maximal inhibitory concentrations (IC50) were determined with the STK HTRF KinEASE assay (Cisbio) according to the manufactor’s instructions. Briefly: 5 µL Kinase solution and 2.5 µL inhibitor solution (8% DMSO in HTRF buffer) were incubated for 1 h before the reaction was started by addition of 2.5 µL starting solution containing ATP and substrate peptide. […] After reaction completion (Akt1: 60 min, Akt2: 20 min, Akt3: 15 min), 10 µL of stop solution were added. […] The quotient of both intensities were recorded at eight different inhibitor concentrations and data fit to a Hill 4-parameter equation with Quattro software suite (Quattro Research GmbH, Martinsried, Germany). Each reaction was performed in duplicates and at least three independent determinations of each IC50 were made.

[6] = target: Akt2 (Homo sapiens, UniProt P31751); test: STK HTRF KinEASE activity-based assay (IC50)
Akt2, sequence (P31751 whole entry): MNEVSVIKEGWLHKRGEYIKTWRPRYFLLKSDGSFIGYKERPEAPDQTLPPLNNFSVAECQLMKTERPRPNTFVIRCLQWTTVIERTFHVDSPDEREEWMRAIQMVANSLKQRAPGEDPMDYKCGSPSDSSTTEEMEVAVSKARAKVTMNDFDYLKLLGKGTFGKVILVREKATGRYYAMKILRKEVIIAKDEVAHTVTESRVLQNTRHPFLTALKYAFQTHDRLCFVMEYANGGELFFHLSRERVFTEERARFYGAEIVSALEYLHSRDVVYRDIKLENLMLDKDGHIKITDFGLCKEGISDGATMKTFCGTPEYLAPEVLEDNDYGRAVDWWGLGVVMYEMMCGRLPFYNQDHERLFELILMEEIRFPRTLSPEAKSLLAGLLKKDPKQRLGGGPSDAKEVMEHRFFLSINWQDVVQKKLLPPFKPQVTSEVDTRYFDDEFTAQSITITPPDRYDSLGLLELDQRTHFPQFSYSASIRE

[7] = target: Akt3 (Homo sapiens, UniProt Q9Y243); test: STK HTRF KinEASE activity-based assay (IC50)
Akt3, sequence (Q9Y243 whole entry): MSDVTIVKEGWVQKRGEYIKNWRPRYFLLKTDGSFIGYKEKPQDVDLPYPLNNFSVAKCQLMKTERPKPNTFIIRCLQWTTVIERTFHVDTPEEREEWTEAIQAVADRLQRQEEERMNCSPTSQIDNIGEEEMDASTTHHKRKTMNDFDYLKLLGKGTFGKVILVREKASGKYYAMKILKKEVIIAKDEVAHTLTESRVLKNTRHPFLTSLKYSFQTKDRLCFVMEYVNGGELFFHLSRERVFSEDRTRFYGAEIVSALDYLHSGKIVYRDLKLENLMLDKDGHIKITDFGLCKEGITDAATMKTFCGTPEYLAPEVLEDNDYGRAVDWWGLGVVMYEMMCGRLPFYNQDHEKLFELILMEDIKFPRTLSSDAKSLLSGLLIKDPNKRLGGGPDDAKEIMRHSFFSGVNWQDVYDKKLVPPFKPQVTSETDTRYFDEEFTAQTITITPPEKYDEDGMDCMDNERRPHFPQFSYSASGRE
Description: as §1

[8] = Mus musculus, BaF3, parental cells, single replicates, read-out: CTG BaF3, individual determinations
[9] = parental cells, single replicates, read-out: CTG BaF3, individual determinations
[10] = Mus musculus, read-out: CTG BaF3myr-Akt1, Mean, mean of replicates
[11] = Mus musculus, read-out: CTG BaF3myr-Akt1, individual determinations, single replicates
[12] = read-out: CTG BaF3myr-Akt1, individual determinations, single replicates
[13] = Mus musculus, read-out: CTG BaF3myr-Akt2, Mean, mean of replicates
[14] = Mus musculus, read-out: CTG BaF3myr-Akt2, individual determinations, single replicates
[15] = read-out: CTG BaF3myr-Akt2, individual determinations, single replicates
[16] = Mus musculus, read-out: CTG BaF3myr-Akt3, Mean, mean of replicates
[17] = read-out: CTG BaF3myr-Akt3, individual determinations, single replicates
[18] = HTRF IC50 Akt1, Mean, mean of replicates
[19] = HTRF IC50 Akt1, individual determinations, single replicates
[20] = IC50 Akt1, HTRF, ATP at KM, 1 h preincubation
[21] = HTRF IC50 Akt2, Mean, mean of replicates
[22] = HTRF IC50 Akt2, individual determinations, single replicates
[23] = IC50 Akt2, HTRF, ATP at KM, 1 h preincubation
[24] = HTRF IC50 Akt3, Mean, mean of replicates
[25] = HTRF IC50 Akt3, individual determinations, single replicates
[26] = IC50 Akt3, HTRF, ATP at KM, 1 h preincubation
[27] = Mus musculus, BaF3, CTG, parental BaF3 cell line, read-out: EC50 BaF3
[28] = Mus musculus, BaF3, parental cells, mean of replicates, read-out: CTG BaF3, Mean

| EC50 [2, 10] [µM] | EC50 [2, 11] [µM] | EC50 [2, 12] | EC50 [3, 15] | EC50 [4, 16] [µM] | EC50 [4, 17] | IC50 [5, 18] [µM] | IC50 [5, 19] | IC50 [5, 20] [µM] | Log ratio IC50 [Akt] / IC50 [Akt], Akt1 / Akt2 [5] | IC50 [6, 21] [µM] | IC50 [6, 22] | IC50 [6, 23] [µM] | IC50 [7, 24] [µM] | IC50 [7, 25] | IC50 [7, 26] [µM] | Compound | EC50 [1, 8] [µM] | EC50 [1, 9] | Log ratio EC50 [Akt] / EC50 [Akt], Akt1 / Akt2 [2] | Log ratio EC50 [Akt] / EC50 [Akt], Akt3 / Akt2 [4] | other results |
| --- | --- | --- | --- | --- | --- | --- | --- | --- | --- | --- | --- | --- | --- | --- | --- | --- | --- | --- | --- | --- | --- |
| 8.29 | 7.5 | 10.1 µM and 7.32 µM | 2.1 µM and 3.52 µM | 5.29 | 9.47 µM and 3.28 µM and 3.12 µM | 1.28 | 1.29 µM (2×) and 1.26 µM | 1.28 ± 0.018 | 0.71 | 0.251 | 0.27 µM and 0.352 µM and 0.233 µM | 0.251 ± 0.018 | 0.607 | 0.64 µM and 0.477 µM and 0.703 µM | 0.607 ± 0.095 | C=CC(=O)Nc1ccc2[nH]c(=O)n(C3CCN(Cc4ccc(-c5ncc(Cc6cnn(C)c6)cc5-c5ccccc5)cc4)CC3)c2c1 [compound 12] | 17.5 | > 30 µM and 26.7 µM | 0.43 | -0.24 | EC50 [3, 13]: 3.05 µM; EC50 [3, 14]: 3.04 µM |
| > 30 | > 30 | > 30 µM | 16.5 µM and > 30 µM | > 30 | > 30 µM | 9.48 | 10.2 µM and 9 µM and 9.2 µM | 9.48 ± 0.665 | 1.14 | 0.682 | 0.766 µM and 1.08 µM and 0.599 µM | 0.682 ± 0.083 | 5.34 | 4.32 µM and 3.56 µM and 8.14 µM | 5.34 ± 2.01 | C=CC(=O)Nc1ccc2[nH]c(=O)n(C3CCN(Cc4ccc(-c5ncc(Cc6cccc(O)c6)cc5-c5ccccc5)cc4)CC3)c2c1 [compound 16] | > 30 | > 30 µM | 0.07 | -0.07 | EC50 [1, 27]: > 30 µM; EC50 [1, 28]: > 30 µM; EC50 BaF3myr-Akt1 ([2]; CTG): generally inactive; EC50 ([2]; Mus musculus, read-out: EC50 BaF3myr-Akt1, CTG): > 30 µM; EC50 [3, 14]: > 30 µM; EC50 BaF3myr-Akt3 ([4]; CTG): generally inactive; EC50 ([4]; Mus musculus, read-out: CTG BaF3myr-Akt3, individual determinations, single replicates): > 30 µM; EC50 ([4]; Mus musculus, read-out: EC50 BaF3myr-Akt3, CTG): > 30 µM |
| 14.6 | – | 8.09 µM and 10.5 µM and 25.3 µM | 4.03 µM and 2.63 µM and 1.62 µM | 17.1 | 9.71 µM and 24.4 µM and 23.9 µM | 0.13 | 0.128 µM and 0.117 µM and 0.144 µM | 0.13 ± 0.011 | -0.07 | 0.152 | 0.117 µM and 0.167 µM and 0.17 µM | 0.151 ± 0.025 | 6.3 | 3.66 µM and 8.18 µM and 7.06 µM | 6.3 ± 1.92 | C=CC(=O)Nc1ccc2[nH]c(=O)n(C3CCN(Cc4ccc(-c5ncc(C(=O)Nc6ccccn6)cc5-c5ccccc5)cc4)CC3)c2c1 [compound 23] | > 30 | > 30 µM | 0.72 | -0.79 | EC50 [1, 27]: > 30 µM; EC50 [1, 28]: > 30 µM; EC50 [3, 13]: 2.76 µM |
